Measurements as given in ChEMBL document CHEMBL5729586, “Inhibitors of LRRK2 kinase” (2023).
pIC50: −log10 of the molar value.

target: Leucine-rich repeat serine/threonine-protein kinase 2 (Homo sapiens, UniProt Q5S007); assay: LRRK2 Enzymatic Assay: LRRKtide substrate (peptide sequence RLGRDKYKTLRQIRQ, derived from human ezrin [amino acids 561-573], moesin [amino acids 539-553] and radixin [amino acids 558-570], obtained from SignalChem, catalogue #L10-58, reconstituted in 20 mM Tris-HCl at pH 7.5 to a final concentration of 1 mg/mL, assay concentration 20 μM) and recombinant human LRRK2 (catalytic domain only [amino acids 970-2527], GST-tagged, expressed in insect cells, obtained from ThermoFisher Scientific, catalogue #PV4874, 0.35 mg/mL, assay concentration 30 nM) were mixed in assay buffer (20 mM Hepes pH 7.5, 10 mM MgCl, 1 mM EGTA, 0.02% Brij35, 0.02 mg/ml BSA, 0.1 mM NaVO, 2 mM DTT, 1% DMSO). Compounds of interest (in DMSO, serial 3-fold dilution from 10 μM to 0.5 nM) or control (1% DMSO) were dispensed into the kinase reaction mixture by Acoustic technology (Echo550; nanoliter range). After incubation at room temperature for 20 minutes, the kinase reaction was initiated by addition of [P]-ATP (Specific activity 10 μCi/μl) and the mixture was incubated at room temperature for 2 hours. The reaction was then stopped by spotting the reaction mixture on strips of phosphocellulose P81 paper. Following washing, the radioactivity of the P81 paper was measured and kinase activity data were expressed as the percent remaining kinase activity in test samples compared to vehicle (dimethyl sulfoxide) reactions.
Sequence (Q5S007 whole entry, the tested form may be a part): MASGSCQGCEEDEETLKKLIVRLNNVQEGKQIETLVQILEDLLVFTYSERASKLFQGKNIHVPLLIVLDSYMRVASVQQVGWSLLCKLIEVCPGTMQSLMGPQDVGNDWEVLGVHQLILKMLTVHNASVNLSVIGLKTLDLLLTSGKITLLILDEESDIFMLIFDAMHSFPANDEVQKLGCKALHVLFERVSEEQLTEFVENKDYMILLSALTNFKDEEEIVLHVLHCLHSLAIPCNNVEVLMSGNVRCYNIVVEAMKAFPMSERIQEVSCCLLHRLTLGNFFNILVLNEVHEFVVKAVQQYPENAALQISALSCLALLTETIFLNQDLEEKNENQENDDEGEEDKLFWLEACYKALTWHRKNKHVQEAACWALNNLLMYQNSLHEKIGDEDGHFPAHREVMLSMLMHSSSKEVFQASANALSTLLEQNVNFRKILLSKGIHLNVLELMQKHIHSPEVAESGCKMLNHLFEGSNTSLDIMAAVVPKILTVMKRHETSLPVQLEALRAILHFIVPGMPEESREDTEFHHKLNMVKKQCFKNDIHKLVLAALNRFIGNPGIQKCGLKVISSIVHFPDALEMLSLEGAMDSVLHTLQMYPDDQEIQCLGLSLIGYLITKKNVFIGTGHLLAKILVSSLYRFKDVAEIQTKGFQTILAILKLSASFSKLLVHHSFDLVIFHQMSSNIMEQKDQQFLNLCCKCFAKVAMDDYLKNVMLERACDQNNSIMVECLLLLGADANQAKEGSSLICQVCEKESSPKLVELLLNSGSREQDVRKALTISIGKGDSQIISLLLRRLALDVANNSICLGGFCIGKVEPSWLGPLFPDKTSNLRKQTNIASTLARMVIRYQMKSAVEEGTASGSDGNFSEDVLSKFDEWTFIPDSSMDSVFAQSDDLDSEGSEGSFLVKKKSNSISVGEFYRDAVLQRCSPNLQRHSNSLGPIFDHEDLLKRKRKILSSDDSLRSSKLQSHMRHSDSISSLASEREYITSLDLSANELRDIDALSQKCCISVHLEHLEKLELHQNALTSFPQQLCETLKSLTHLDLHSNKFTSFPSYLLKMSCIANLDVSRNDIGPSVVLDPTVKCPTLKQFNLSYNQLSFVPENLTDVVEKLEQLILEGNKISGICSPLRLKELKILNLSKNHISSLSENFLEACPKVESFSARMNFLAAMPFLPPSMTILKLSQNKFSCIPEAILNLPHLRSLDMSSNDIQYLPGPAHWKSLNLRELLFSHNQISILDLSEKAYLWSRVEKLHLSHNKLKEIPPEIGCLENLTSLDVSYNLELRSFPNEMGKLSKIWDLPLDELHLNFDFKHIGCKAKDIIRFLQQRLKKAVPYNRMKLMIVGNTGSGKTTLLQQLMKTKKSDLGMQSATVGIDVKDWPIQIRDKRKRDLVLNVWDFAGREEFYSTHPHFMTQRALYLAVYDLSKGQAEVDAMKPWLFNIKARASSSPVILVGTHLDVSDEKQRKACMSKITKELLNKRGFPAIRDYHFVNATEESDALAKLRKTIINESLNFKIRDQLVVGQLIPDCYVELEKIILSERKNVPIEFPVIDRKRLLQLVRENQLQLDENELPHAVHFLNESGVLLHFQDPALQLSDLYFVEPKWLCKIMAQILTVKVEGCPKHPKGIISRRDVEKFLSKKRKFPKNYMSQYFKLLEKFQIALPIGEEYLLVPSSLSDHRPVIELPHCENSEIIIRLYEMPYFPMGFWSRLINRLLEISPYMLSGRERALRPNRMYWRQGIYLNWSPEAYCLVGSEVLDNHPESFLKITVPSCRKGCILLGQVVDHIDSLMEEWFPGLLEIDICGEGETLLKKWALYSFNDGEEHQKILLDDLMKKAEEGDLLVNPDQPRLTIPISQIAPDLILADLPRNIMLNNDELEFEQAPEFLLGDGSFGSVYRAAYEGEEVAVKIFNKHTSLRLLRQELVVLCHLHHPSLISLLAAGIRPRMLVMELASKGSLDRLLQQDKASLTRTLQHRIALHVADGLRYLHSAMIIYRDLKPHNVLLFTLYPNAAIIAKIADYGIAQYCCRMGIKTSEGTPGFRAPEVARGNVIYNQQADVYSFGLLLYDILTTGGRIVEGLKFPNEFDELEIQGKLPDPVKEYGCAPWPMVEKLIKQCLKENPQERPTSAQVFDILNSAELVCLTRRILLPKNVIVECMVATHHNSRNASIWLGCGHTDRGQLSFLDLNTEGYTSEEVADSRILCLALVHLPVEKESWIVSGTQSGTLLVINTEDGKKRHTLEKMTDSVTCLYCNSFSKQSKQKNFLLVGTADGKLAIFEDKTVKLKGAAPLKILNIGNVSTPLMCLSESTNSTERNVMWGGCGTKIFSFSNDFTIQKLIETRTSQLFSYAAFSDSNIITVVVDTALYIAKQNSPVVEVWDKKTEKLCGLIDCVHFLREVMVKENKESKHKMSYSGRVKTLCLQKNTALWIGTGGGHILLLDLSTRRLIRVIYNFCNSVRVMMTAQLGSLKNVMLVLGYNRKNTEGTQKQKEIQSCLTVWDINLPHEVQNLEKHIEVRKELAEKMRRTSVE

| SMILES | pIC50 |
| --- | --- |
| CC(N[C@H]1CC[C@H](COc2ccnc(Nc3ccc(N4CCOCC4)cc3)n2)CC1)C(F)(F)F (stereo partly drawn) | < 6.40 |
| CN[C@H]1CC[C@H](COc2nc(Nc3cn(C(C)(C)C#N)nc3C)ncc2C2CC2)CC1 | > 7.30 |
| FC(F)CN[C@H]1CC[C@H](COc2nc(Nc3ccc(N4CCOCC4)cc3)ncc2Cl)CC1 | > 7.30 |
| CC(=O)N[C@H]1CC[C@H](COc2nc(Nc3ccc(N4C[C@@H](C)O[C@@H](C)C4)cc3)ncc2C)CC1 | > 7.30 |
| CC(=O)N[C@H]1CC[C@@H](COc2nc(Nc3ccc(N4C[C@@H](C)O[C@@H](C)C4)cc3)ncc2F)C1 | > 7.30 |

The next lines start with the values.

| pIC50 | SMILES |
| --- | --- |
| > 7.30 | CN[C@H]1CC[C@H](COc2nc(Nc3cnn(C(C)C)c3)ncc2Cl)CC1 |
| > 7.30 | CC(=O)N[C@H]1CC[C@H](COc2nc(Nc3cnn(CCO)c3)ncc2F)CC1 |
| > 7.30 | Cc1nn(C(C)(C)C#N)cc1Nc1ncc(F)c(OCC2CCNCC2(F)F)n1 (stereo not drawn) |
